Where a name gives a salt, the structure may show the parent alone. Active and inactive are the calls of the source.
Columns and labels:
[1] = biological target: T1, Coagulation factor XII (Homo sapiens, UniProt P00748); experiment: Factor XIIa Dose Response Confirmation from Single Well HTS. [Related pubchem assays (depositor defined):AID701]; assay type: functional
T1 sequence (P00748 whole entry): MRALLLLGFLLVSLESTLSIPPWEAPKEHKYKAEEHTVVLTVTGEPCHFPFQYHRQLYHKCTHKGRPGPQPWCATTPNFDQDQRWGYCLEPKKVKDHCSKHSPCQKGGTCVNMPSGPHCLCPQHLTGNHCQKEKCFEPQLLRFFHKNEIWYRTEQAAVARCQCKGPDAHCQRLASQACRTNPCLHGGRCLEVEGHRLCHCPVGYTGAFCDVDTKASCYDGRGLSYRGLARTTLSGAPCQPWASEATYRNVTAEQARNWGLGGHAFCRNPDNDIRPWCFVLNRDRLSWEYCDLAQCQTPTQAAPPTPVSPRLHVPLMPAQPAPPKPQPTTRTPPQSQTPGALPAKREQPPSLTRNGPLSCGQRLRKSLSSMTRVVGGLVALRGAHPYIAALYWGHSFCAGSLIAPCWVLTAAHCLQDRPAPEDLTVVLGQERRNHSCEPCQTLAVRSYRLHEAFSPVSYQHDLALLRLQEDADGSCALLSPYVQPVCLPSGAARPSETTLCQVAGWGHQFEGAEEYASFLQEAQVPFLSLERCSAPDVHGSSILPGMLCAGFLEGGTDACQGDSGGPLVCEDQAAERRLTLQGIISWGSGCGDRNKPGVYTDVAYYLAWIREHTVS

[2] = Vero E6 cell cytotoxicity, dose response, cytotoxicity control for non-replicating M. tuberculosis project, secondary assay (AID 492998); assay type: functional, VeroE6; details: Vero C1008
[3] = biological target: Melanocortin receptor 4 (Homo sapiens, UniProt P32245); assay type: functional, cell-based;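 also: Cell-based assay with luminescence read-out, confirmatory dose-response testing for agonist activity of biased ligands at MC4R; human U2OS cells with tagged receptor and beta-arrestin; potency of agonists that increase receptor coupling to beta-arrestin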
Chain of Melanocortin receptor 4 (P32245 whole entry): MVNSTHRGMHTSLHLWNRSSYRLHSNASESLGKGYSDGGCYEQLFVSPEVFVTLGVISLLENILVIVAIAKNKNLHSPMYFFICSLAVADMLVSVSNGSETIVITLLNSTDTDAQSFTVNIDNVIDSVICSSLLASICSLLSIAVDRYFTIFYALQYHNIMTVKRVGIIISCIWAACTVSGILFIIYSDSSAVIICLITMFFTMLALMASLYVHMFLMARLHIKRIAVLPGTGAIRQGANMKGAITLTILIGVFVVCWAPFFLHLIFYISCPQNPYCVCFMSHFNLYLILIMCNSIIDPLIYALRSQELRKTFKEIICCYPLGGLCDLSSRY

[4] = HepG2 cell cytotoxicity, dose response, cytotoxicity control for Shn3 inhibitor project, CellTiter-Glo, cherry-picked (AID 624134); assay type: functional, cell-based
[5] = THP-1 cell cytotoxicity, dose response, cytotoxicity control for non-replicating M. tuberculosis project (AID 489025); assay type: functional
[6] = cells; assay type: functional
[7] = biological target: Nonstructural protein 1 (Influenza A virus, UniProt Q194T2); assay type: functional, Influenza A virus (A/California/07/2009(H1N1))
Chain of Nonstructural protein 1 (Q194T2 whole entry): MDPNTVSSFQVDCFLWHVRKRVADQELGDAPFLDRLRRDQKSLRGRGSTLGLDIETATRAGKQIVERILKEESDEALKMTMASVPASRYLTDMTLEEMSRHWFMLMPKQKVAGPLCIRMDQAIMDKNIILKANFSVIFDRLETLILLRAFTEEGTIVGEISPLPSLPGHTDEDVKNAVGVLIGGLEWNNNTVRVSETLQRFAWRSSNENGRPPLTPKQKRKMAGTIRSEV

[8] = Shn3 3'UTR reporter inhibitors, dose response, cell-based, Clone20 osteoblasts, firefly luciferase, cherry-picked (AID 624132); assay type: functional;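 also: firefly luciferase luminescence from reporter carrying the Shn3 3'UTR in osteoblasts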
[9] = biological target: T2, Ubiquitin-conjugating enzyme E2 N (Homo sapiens, UniProt P61088); assay type: functional;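 also: Dose-response confirmation in a TR-FRET assay detecting UBC13-driven polyubiquitin chain formation, inhibition measured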
T2 sequence (P61088 whole entry): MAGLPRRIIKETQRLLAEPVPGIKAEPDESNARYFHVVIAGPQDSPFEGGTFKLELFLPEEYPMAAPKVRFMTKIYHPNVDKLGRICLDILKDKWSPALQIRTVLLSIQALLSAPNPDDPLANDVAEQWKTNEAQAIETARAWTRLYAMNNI

[10] = HepG2 cell cytotoxicity, dose response, cytotoxicity control for non-replicating M. tuberculosis project (AID 489018); assay type: functional; details: Mycobacterium tuberculosis
[11] = biological target: Prothrombin (Bos taurus, UniProt P00735); experiment: thrombin inhibition, dose response, biochemical, fluorescence polarization, uHTS hits (AID 602369); assay type: functional
[12] = inhibitors of intracellular T. cruzi replication, confirmation, NIH3T3 host cells, beta-gal luminescence (AID 2044); assay type: functional, cell-based;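 also: intracellular parasites grown in NIH/3T3 mouse fibroblasts as host cells; luminescent beta-galactosidase reporter signal from transgenic T. cruzi replicating inside host cells; inhibitors lower the luminescence signal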
[13] = biological target: 26S proteasome non-ATPase regulatory subunit 14 (Homo sapiens, UniProt O00487); experiment: inhibition of proteasome subunit RPN11 – biochemical, fluorescence polarization, uHTS hits, confirmation (AID 602368); assay type: functional
Chain of 26S proteasome non-ATPase regulatory subunit 14 (O00487 whole entry): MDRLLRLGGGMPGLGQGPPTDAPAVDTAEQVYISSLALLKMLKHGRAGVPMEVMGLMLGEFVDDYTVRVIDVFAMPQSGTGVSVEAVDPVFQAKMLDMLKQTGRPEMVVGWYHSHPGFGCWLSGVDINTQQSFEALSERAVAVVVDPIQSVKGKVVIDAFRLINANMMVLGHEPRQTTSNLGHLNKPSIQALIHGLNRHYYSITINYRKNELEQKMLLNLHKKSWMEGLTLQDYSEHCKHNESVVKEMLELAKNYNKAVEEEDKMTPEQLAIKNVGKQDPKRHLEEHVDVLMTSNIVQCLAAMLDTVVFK

[14] = biological target: 72 kDa type IV collagenase (Homo sapiens, UniProt P08253); experiment: Dose Response validation of uHTS RPN11 inhibitor hits using a MMP-2 Fluorescence assay.; assay type: functional
Chain of 72 kDa type IV collagenase (P08253 whole entry): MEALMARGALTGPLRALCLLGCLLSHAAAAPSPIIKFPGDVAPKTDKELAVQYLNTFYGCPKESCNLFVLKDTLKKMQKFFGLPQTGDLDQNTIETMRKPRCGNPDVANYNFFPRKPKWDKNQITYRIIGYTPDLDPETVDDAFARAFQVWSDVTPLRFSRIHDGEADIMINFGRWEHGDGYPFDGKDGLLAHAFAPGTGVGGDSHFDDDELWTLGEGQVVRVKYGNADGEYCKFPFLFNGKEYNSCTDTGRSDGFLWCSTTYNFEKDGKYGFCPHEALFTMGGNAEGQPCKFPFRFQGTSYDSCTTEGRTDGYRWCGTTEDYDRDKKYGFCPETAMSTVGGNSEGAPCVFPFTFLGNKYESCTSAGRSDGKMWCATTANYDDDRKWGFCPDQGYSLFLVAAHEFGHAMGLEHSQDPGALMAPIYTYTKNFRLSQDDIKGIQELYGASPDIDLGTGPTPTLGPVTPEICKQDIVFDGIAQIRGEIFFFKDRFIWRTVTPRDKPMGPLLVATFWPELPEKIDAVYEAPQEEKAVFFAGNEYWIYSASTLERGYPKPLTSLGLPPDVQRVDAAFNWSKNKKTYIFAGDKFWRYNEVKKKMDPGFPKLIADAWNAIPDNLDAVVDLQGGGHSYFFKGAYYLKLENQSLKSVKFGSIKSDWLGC

[15] = cytotoxicity toward NIH3T3 fibroblasts, dose response, counter-screen, cell-based, ATP luminescence, mouse fibroblasts (AID 2010); assay type: functional;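 also: cells exposed to compound for about 90 hours before reading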
[16] = cytotoxicity in HEK-293T cells, dose response, cytotoxicity control for TCR NF-kB inhibitor project, luminescence, T-cell screen hits (AID 489026); assay type: functional, cell-based;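 also: cells exposed to compound about 14 hours before the viability readout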
[17] = cytotoxicity toward DRD oncogenic fibroblasts, dose response, cell-based, non-viral oncogenic, luminescence (AID 1934); assay type: functional; details: Homo sapiens
[18] = system: BJ; experiment: cytotoxicity toward BJ-TERT fibroblasts, dose response, cell-based, RAS-independent, luminescence (AID 1933); assay type: functional; details: Homo sapiens
[19] = biological target: Luciferin 4-monooxygenase (Photinus pyralis, UniProt P08659); experiment: firefly luciferase enzyme inhibitors, dose response, biochemical, luminescence (AID 1891)
Chain of Luciferin 4-monooxygenase (P08659 whole entry): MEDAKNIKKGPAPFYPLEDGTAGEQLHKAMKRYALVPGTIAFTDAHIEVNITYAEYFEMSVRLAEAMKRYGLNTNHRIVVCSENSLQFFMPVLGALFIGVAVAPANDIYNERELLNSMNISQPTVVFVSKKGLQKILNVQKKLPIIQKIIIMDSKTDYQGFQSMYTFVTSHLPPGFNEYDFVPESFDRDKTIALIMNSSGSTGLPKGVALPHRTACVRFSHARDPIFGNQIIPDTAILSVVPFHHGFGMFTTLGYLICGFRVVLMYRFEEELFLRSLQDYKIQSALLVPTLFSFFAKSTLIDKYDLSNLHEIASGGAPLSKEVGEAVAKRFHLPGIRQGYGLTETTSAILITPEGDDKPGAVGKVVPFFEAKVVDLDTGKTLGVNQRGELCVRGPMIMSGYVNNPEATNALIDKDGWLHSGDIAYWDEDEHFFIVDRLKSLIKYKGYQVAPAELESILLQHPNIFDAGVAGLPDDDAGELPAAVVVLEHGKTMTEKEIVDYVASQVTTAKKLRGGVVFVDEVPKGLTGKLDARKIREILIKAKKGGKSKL

[20] = biological target: T3, Estrogen receptor beta (Homo sapiens, UniProt Q92731); experiment: ERβ–SRC-3 coactivator interaction inhibitors, confirmation, orthogonal assay, biochemical, ELISA, streptavidin-HRP readout (AID 1060)
T3 sequence (Q92731 whole entry): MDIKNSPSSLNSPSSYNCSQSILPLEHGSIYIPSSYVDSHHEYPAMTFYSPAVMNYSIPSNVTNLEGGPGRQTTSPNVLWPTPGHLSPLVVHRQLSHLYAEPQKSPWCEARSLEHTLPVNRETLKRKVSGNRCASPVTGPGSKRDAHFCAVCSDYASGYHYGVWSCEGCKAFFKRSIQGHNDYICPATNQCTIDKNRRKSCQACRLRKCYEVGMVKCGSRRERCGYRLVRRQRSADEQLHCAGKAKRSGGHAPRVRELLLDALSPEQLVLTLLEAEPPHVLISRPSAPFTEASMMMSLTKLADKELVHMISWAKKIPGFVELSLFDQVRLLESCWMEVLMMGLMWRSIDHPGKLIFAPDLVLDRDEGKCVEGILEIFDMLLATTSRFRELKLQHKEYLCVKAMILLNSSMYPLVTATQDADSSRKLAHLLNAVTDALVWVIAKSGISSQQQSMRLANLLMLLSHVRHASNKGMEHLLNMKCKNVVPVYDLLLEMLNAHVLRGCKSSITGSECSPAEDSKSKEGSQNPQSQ

[21] = system: BJ; experiment: cytotoxicity toward Ras-transformed BJeLR fibroblasts, dose response, cell-based, alamar blue fluorescence, cherrypicked samples (AID 2631); assay type: functional; details: Homo sapiens;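 also: confirmatory dose-response assay in RAS-dependent BJ fibroblasts engineered with TERT, LT and ST, with cytotoxicity read by fluorescence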
[22] = Luminescence Cell-Based Dose Confirmation HTS to Identify Inhibitors of Platelet Dense Granule Release. [Related pubchem assays: 1663 (Primary HTS), 1678 (Summary of Project)]; assay type: functional
[23] = system: BJ; experiment: cells; assay type: functional, cell-based; details: Homo sapiens
[24] = biological target: T3, Estrogen receptor beta
[25] = system: BJ; experiment: cytotoxicity toward BJ-TERT-LT-ST fibroblasts, dose response, cell-based, RAS-independent, luminescence (AID 1935); assay type: functional; details: Homo sapiens;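 also: BJ fibroblasts immortalized with TERT plus LT and ST oncogenes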
[26] = Luminescence Cell-Based Dose Confirmation HTS to Identify Activators of 5'UTR Stem-Loop Driven Alpha-Synuclein mRNA Translation in H4 Neuroglioblastoma Cells. [Related pubchem assays: 1829 (Project Summary), 1814 (Primary HTS)]; assay type: functional
[27] = system: H4; experiment: Luminescence Cell-Based Dose Response HTS to Identify Activators of 5'UTR Stem-Loop Driven Prion Protein mRNA Translation in H4 Neuroglioblastoma Cells. [Related pubchem assays: 1829 (Project Summary), 1814 (Primary HTS)]; assay type: functional; details: Homo sapiens
[28] = biological target: Eukaryotic translation initiation factor 4E (Mus musculus, UniProt P63073); experiment: eIF4E–eIF4G protein interaction inhibitors, dose response, biochemical, TR-FRET (AID 855); assay type: functional;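 also: potency for disrupting eIF4E binding to eIF4GI seen as loss of FRET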
Chain of Eukaryotic translation initiation factor 4E (P63073 whole entry): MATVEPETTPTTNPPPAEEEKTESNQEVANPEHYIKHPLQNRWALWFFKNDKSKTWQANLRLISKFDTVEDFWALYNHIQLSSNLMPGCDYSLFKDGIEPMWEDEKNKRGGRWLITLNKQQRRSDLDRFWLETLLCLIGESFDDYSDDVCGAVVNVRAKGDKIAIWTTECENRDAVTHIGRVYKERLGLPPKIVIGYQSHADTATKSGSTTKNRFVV

[29] = biological target: T4, High affinity choline transporter 1 (Homo sapiens, UniProt Q9GZV3); experiment: CHT inhibitors, dose response, cell-based, 5-point CRC, membrane potential dye (AID 504840); assay type: functional
T4 sequence (Q9GZV3 whole entry): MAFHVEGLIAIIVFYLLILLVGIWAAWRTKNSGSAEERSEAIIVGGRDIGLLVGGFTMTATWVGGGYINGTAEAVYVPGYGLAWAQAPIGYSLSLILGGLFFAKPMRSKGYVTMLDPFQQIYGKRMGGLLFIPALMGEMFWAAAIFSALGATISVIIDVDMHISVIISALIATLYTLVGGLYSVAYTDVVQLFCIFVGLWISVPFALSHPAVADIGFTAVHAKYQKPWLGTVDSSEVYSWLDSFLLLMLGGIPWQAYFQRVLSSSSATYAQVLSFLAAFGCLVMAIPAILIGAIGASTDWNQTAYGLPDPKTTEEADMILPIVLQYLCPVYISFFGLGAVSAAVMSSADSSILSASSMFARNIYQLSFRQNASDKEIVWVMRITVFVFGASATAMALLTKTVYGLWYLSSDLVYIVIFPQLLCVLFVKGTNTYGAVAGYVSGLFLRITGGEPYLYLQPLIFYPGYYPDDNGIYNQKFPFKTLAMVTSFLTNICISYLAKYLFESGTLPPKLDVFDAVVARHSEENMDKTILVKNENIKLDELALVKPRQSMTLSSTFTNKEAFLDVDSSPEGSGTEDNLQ

[30] = Luminescence Cell-Based Dose Response HTS to Identify Activators of Luciferase Translation or Activity in H4 […] Cells. [Related pubchem assays: 1829 (Project Summary), 1814 (Primary HTS)]; assay type: functional
[31] = HEp-2 cell cytotoxicity, dose response, cytotoxicity control for RSV inhibitor project, HTS (AID 2410); assay type: functional; details: human respiratory syncytial virus
[32] = biological target: G-protein coupled receptor 55 (Homo sapiens, UniProt Q9Y2T6); experiment: GPR55 antagonists blocking LPI-driven arrestin recruitment, primary screen, imaging, U2OS, beta-arrestin-GFP, LPI agonist (AID 2013); assay type: functional;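 also: antagonist potency measured as reduced agonist-driven arrestin aggregation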
Chain of G-protein coupled receptor 55 (Q9Y2T6 whole entry): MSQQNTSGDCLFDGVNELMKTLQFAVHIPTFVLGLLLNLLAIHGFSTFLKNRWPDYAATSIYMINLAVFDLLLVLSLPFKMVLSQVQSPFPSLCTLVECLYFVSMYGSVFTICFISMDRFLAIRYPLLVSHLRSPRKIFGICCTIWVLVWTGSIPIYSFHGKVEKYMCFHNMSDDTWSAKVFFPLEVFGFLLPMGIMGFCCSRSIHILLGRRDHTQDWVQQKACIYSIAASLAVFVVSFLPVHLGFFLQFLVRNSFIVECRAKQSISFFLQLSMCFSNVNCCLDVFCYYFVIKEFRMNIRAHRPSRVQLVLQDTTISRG

[33] = system: Vero; experiment: cells; assay type: functional; details: Chlorocebus sabaeus
[34] = biological target: Heat shock protein HSP 90-alpha (Homo sapiens, UniProt P07900); assay type: functional, organism-based
[35] = system: Vero; experiment: cells; assay type: functional, cell-based; details: Chlorocebus sabaeus
[36] = system: HEK293; experiment: inhibitors of LMP1-driven NF-kB reporter, dose response, cell-based, HEK293, luciferase, cherry-pick (AID 588343); assay type: functional; details: Homo sapiens
[37] = biological target: T5, Low molecular weight phosphotyrosine protein phosphatase (Homo sapiens, UniProt P24666); assay type: functional; details: read-out: IC50_Mean;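 also: Dose-response confirmation assay measuring inhibition of LMPTP enzyme activity by fluorescence intensity read-out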
T5 sequence (P24666 whole entry): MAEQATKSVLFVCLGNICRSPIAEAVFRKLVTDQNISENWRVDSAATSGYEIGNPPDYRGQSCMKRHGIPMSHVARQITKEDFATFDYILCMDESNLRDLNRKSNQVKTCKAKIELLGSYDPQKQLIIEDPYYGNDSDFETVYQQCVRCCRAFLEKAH

[38] = Fluorescence-based cell-based high throughput dose response assay for inhibitors of the interaction of nucleotide-binding oligomerization domain containing 2 (NOD2) and the receptor-interacting serine-threonine kinase 2 (RIPK2).; assay type: functional, Homo sapiens; details: Homo sapiens
[39] = control 3'UTR Renilla luciferase suppression, dose response, counter-screen for Shn3 inhibitor project, cell-based, Clone20-Shn3RL, cherry-picked (AID 624133); assay type: functional

O=C(c1ccccc1)N1CCCC(c2nc(O)c3nnn(Cc4ccccc4)c3n2)C1 (stereo not given)
IC50 [1]: > 50 µM (inactive)

CCc1ccc(OCCNc2cc(N3CCNC(C)C3)ccc2[N+](=O)[O-])cc1 (stereo not given)
CC50 [2]: 13.9 µM (active)
EC50 [3]: > 89.2 µM (inactive)
AC50 [4]: 7.97 µM (active)
CC50 [5]: 12.4 µM (active)
IC50 [6]: 24 µM (active)
IC50 [7]: 37.4 µM (active)
AC50 [8]: 15.6 µM (active)
IC50 [9]: > 20 µM (inactive)
CC50 [10]: 12.4 µM (active)

Cc1ccc(-c2ccc(/C=C3\SC(N4CCOCC4)=NC3=O)o2)cc1
IC50 [11]: 7.72 µM (active)
EC50 [12]: 0.655 µM (active)
IC50 [13]: 9.69 µM (active)
IC50 [14]: > 100 µM (inactive)
EC50 [15]: 17.1 µM (active)

c1ccc(-c2noc(-c3ccc4c(c3)OCO4)n2)nc1
IC50 [16]: > 80 µM (inactive)
EC50 [17]: 1.67 µM (active)
EC50 [18]: 2.1 µM (inconclusive)
EC50 [19]: 0.105 µM (active)
IC50 [20]: > 109 µM (not active)
EC50 [21]: > 133 µM (inactive)
EC50 [22]: 1.1 µM (active)
EC50 [23]: 1.47 µM (active)
IC50 [24]: 37.8 µM (not active)
EC50 [25]: 6.29 µM (inconclusive)

O=C(OCC(=O)c1c[nH]c2ccccc12)c1cccc(O)c1
EC50 [26]: 5.16 µM (active)
EC50 [27]: 8.02 µM (active)
IC50 [28]: > 64 µM (inactive)
IC50 [29]: 15.8 µM (active)
EC50 [30]: 12.3 µM (active)

O=C(Nc1nc2n(n1)C(c1ccc(Cl)cc1)CC(c1ccc(Cl)cc1)N2)c1ccco1 (stereo not given)
CC50 [31]: 12.8 µM (active)
IC50 [1]: > 50 µM (inactive)

CC(=O)c1ccc(OC(=O)c2ccc(Br)o2)cc1
IC50 [1]: 18.5 µM (active)

CCc1ccc(C(=O)NC(=S)Nc2ccccc2N2CCOCC2)cc1
IC50 [32]: 1.2 µM (active)

CCOC(=O)c1cnc2c(c(C)nn2C)c1Oc1ccc(Cl)cc1
IC50 [32]: 3.54 µM (active)

CC(=NNc1nc2ccccc2s1)c1ncccn1
CC50 [33]: 9.06 µM (active)
IC50 [7]: 5.05 µM (active)
AC50 [34]: 1.61 µM (active)
IC50 [35]: > 25 µM (active)
AC50 [36]: 14 µM (active)

O=C(NCc1ccccn1)c1cn(CCc2ccccc2)nn1
IC50 [1]: > 50 µM (inactive)

CCN(C(C)=O)c1cnc(C=NNC(N)=S)c2ccccc12
IC50 [7]: 6.69 µM (active)

CC(C1SC(=S)NC1=O)C1SC(=S)NC1=O (stereo not given)
IC50 [11]: 52.4 µM (active)
IC50 [13]: 45.4 µM (active)
IC50 [14]: > 100 µM (inactive)
IC50 [37]: 80 µM (inactive)

CCN(CC)CCN1C(=O)/C(=C\c2ccc(Cl)c([N+](=O)[O-])c2)S/C1=N\c1ccc(OC)cc1
EC50 [17]: 2.86 µM (active)
EC50 [18]: 2.1 µM (active)
CC50 [33]: 15.7 µM (active)
AC50 [4]: 16.8 µM (active)
EC50 [21]: 0.537 µM (active)
IC50 [38]: 2.75 µM (active)
AC50 [39]: 10.4 µM (active)
AC50 [8]: 2.11 µM (active)
EC50 [23]: 4.01 µM (active)
EC50 [25]: 1.65 µM (active)

CC1(C)CC(=O)C(/C=N/CC2CCN(C(=O)Cc3ccccc3)CC2)=C(O)C1
IC50 [11]: > 100 µM (inactive)
IC50 [13]: > 100 µM (inactive)
IC50 [14]: > 100 µM (inactive)

OC(CCCN1CCCCC1)(c1ccccc1)c1ccccc1 [DIPHENIDOL HYDROCHLORIDE]
AC50 [36]: 323 µM (active)
